Data from patent US11612609B2, “Uses of oxygenated cholesterol sulfates (OCS)” (Virginia Commonwealth University, priority 2013, dated 2023).
Entries after “also recorded” stand apart in the source; their conditions may differ.

What was measured:
[1] = system: acute liver failure induced by acetaminophen; assay: Acetaminophen (ATMP) 500 mg/kg acute liver failure in mice, serum markers (Example 1A); assay type: in vivo
Description: (§1) Female mice were peritoneally-injected with acetaminophen (500 mg/kg, in 10% ethanol in PBS) either 0.5 or 2 hrs before being treated by administration of 25HC3S (20 or 25 mg/kg, 10% propylene glycol in PBS). Sera were collected 24 or 48 hrs following acetaminophen administration and enzymatic activities and other serum parameters were measured.

[2] = Level of 25HC3S in blood and tissues after administration (Example 1A, FIG. 3); assay type: in vivo, mice
Description: FIGS. 3A and B. Concentration of 25HC3S in A, blood and B, the indicated tissues of rats subjected to high levels of ATMP.
as §1
FIGS. 3A and 3B show the level of 25HC3S in blood (3A) and the indicated tissues (3B) at the indicated times after administration.

[3] = system: high dose of acetaminophen (ATMP); assay: ATMP 600 mg/kg in mice, 10-day mortality and liver function markers (Example 1B); assay type: in vivo
Description: In another set of experiments, female mice were peritoneally-injected with acetaminophen (600 mg/kg, in 20% EtOH in PBS) and were then further treated by peritoneal injection of 25HC3S (25 mg/kg in 10% PG in PBS) 2 and 24 hrs later. Control mice received ATMP without 25HC3S. Mortality was monitored for 10 days.

[4] = system: acute liver failure, as induced by PO administration of acetaminophen; assay: ATMP 300 mg/kg PO in mice, serum chemistry and body weight (Example 2); assay type: in vivo; conditions: 25HC3S 25 mg/kg IP or PO, 1 hour and 24 hours after ATMP 300 mg/kg PO; vs route-matched vehicle
Description: Mice were challenged with acetaminophen (300 mg/kg PO) and then treated with vehicle or 25HC3S (25 mg/kg) by IP injection or PO gavage, one (1) hour and 24 hours after acetaminophen challenge. Measurements and samples included whole blood for serum and clinical chemistry analysis (ALT, AST, ALK, LDH, BUN and glucose) and livers and kidneys for formalin fixation and histology.

[5] = system: renal ischemia/reperfusion; assay: Kidney ischemia-reperfusion in rats (Example 3); assay type: in vivo, Lewis rats
Description: 25HC3S was dissolved in propylene glycol, at 20 mg/mL, and stored at room temperature as the stock solution. Before use, 3 parts of PBS was mixed with 1 part of DV928 stock solution. The final concentration for injection was 5 mg/ml. Preparation of the Formulation for oral gavage: […]
25HC3S was suspended in 0.5% carboxymethylcellulose (CMC) containing 0.05% tween-80, at 10 mg/mL, and stored at room temperature and mixed well before use.
Adult (9- to 11-week-old) male Lewis (LEW, RE11) rats, 225-250 gram, were housed in a controlled 12-hr light-dark cycle environment and allowed free access to water and regular rat chow. All rats were anesthetized with pentobarbital 40 mg/kg i.p.
Ischemia of the left kidney was performed by transient occlusion of the left renal artery and vein, and ureter for 50 min with a vascular micro-clip. The skin was temporarily closed during the ischemia period, and the rats were put on a heating pad maintained at a temperature of 37° C. At reperfusion, the right kidney was removed before closing the abdomen with 4-0 silk suture.
Animals were randomly divided into 5 groups: • Group A. 25HC3S—i.p. dosing (as pre-treatment) N=12 • Group B. 25HC3S—i.p. dosing (as post-treatment) N=12 • Group C. 25HC3S—oral dosing (as pre-treatment) N=12 • Group D. Vehicle control, i.p. (as pre-treatment) N=6 • Group E. Vehicle control, oral (as pre-treatment) N=6
Rats in the pre-treatment groups received active or vehicle 1 day before (Day −1) the surgical intervention (I/R event) and continued for a total of 4 days. Rats in the post-treatment group received the 1st treatment at 30 min after the renal artery occlusion and continued for a total of 3 days. Blood samples were taken from all rats 2 days before the surgery (as baseline), 3 days after the surgery, and 7 days after the surgery for serum creatinine and blood urea nitrogen (BUN) analysis. All rats were sacrificed on Day 7.

[6] = system: heart ischemia-reperfusion injury; assay: Heart ischemia-reperfusion in mice (Example 4); assay type: in vivo, C67B16 mice
Description: Wild-type C67B16 mice, both males and females, were used in the experiment. After anesthesia, the thorax of each mouse was opened and the heart was subject to a 45-minute ischemic period by ligation of the left anterior descending coronary artery, and then reperfusion was allowed by removing the coronary arterial obstruction. The thorax was closed, and mice were allowed to recover for 24 hours. All animals were sacrificed at the end of the study, 24 h after the procedure, to gain access to the heart tissue. The heart was frozen, sectioned into slices, and then stained to determine the infarct size.
Given the experience that 25-30% of the animals may die within the 24-hour period because of the procedure (occlusion of coronary artery), all groups included 12 animals. The vehicle treated group (12 mice) was compared with 25HC3S treated groups (24 mice). One group of mice received the drug (25HC3S) just before ischemia/reperfusion (FR) and another group received drug about 16-20 h before FR. Administration was via the i.p. route with either vehicle (10% propylene glycol in PBS) or 25HC3S at a dose of 25 mg/kg in the same vehicle.

[7] = system: transient focal cerebral ischemia (tMCAO); assay: Brain stroke study, transient middle cerebral artery occlusion (tMCAO) in rats (Example 5); assay type: in vivo, Sprague Dawley rats; conditions: for tissue viability (T2 relaxation time): lower T2 in ms vs vehicle
Description: Transient focal cerebral ischemia was produced by right side middle cerebral artery (MCA) occlusion in male Sprague Dawley rats under anesthesia. After 120 min of ischemia, the MCA blood flow was restored. The procedure was therefore named tMCAO. All rats were given an i.p. injection of saline (4 ml per rat) after the surgery. Three groups of rats were used in the study: • Group A: 12 sham operated rats received vehicle by ip injection • Group B: 12 tMCAO rats received vehicle by ip injection • Group C: 12 tMCAO rats received 25HC3S by ip injection The parameters measured were as follows: • Mean body weight over time • Mean 7- and 20-point Neuroscore over time • Limb Placing test results over time • Mean infarct volumes (mm3), edema volumes (mm3) and T2-relaxation times (ms) Behavioral testing was conducted at 24 hours, 3 days, and 7 days post transient middle cerebral artery occlusion (tMCAO). Both 20-point Neuroscore and 7-point Neuroscore tests were conducted to assess post-ischemic motor and behavioral deficits. The Limb Placing test was conducted to assess the sensory motor integration of fore- and hind-limbs responses to tactile and proprioceptive stimulation. MRI acquisitions in vivo for all rats were performed at 24 h and 7 days after tMCAO.Lesion size, tissue viability (T2 in milliseconds), and brain edema were determined using absolute T2-MRI. Eighteen (18) coronal slices of thickness 1 mm were acquired using field-of-view imaging matrix. Absolute T2-values from contra-lateral cortex were used as a reference for tissue viability. All MRI data were analyzed using Matlab software. The infarct volume/oedema analysis was done by an observer blinded to the treatment groups. Results

[8] = system: sepsis induced by the endotoxin lipopolysaccaride (LPS); assay: Sepsis induced by LPS, 25HC3S given 2 hrs after LPS (Examples 6A and 6B); assay type: in vivo, C57BL/6J mice; conditions: 25HC3S 25 mg/kg 2 hrs after LPS, vs vehicle
Description: To examine the effect of 25HC3S on sepsis induced by the endotoxin lipopolysaccaride (LPS), 11-week-old female C57BL/6J mice were IV-injected with LPS (30 mg/kg or 40 mg/kg, in PBS) 2 hrs before being treated by administration of 25HC3S (25 mg/kg, 10% propylene glycol in PBS), and mortality was monitored (% survival).

mortality induced by LPS = assay: Mortality induced by LPS, pretreatment with 25HC3S (Example 6C); assay type: in vivo, C57BL/6J mice; conditions: LPS 4 mg/kg IV; 25HC3S 50 mg/kg 2 hrs before LPS; as of day 3; control 40%
Description: A further experiment to examine the effects of pretreatment of 25HC3S on mortality induced by LPS was conducted. In this experiment, 11-week-old female C57BL/6J mice were IV-injected with LPS (4 mg/kg in PBS). The mice were treated by administration of 25HC3S (50 mg/kg, 10% propylene glycol in PBS) 2 hrs before LPS administration, and mortality (% survival) was monitored. The results are presented below and in FIG. 9C.

[9] = Human Phase I single dose ascending study (Example 7); assay type: in vivo
Description: A randomized, double blind, and placebo controlled single dose ascending First-in-human Phase 1 study was conducted. The active agent, 25HC3S, was suspended at 30, 100, 300, and 600 mg in 60 mL of ORA-Blend® SF sugar-free flavored oral suspending vehicle. As Placebo dosage form, calcium carbonate, USP, was suspended at 30, 100, 300, and 600 mg in 60 mL of ORA-Blend® SF sugar-free flavored oral suspending vehicle. The suspension, either active or Placebo, was orally administered to each subject. Each dose group had 4 subjects receiving a single dose of active and 2 subjects receiving a single dose of Placebo. All subjects were monitored by health professionals for any potential adverse events for 7 days following administration.

[10] = 25HC3S 20 or 25 mg/kg 2 hours after ATMP 500 mg/kg, within 24 hrs
[11] = oral gavage pretreatment, higher dose, Day 3, to a lesser extent than injection
[12] = post-treatment by injection, first dose 30 min after occlusion, 3 days
[13] = pretreatment by IP injection a day before surgery, once daily 4 days
[14] = 24 hours post tMCAO, vs vehicle, difference not statistically significant
[15] = 24 hours, 3 days, 7 days post tMCAO, vs vehicle, trend of better scores

C[C@H](CCCC(C)(C)O)[C@H]1CC[C@H]2[C@@H]3CC=C4C[C@@H](OS(=O)(=O)O)CC[C@]4(C)[C@H]3CC[C@]12C [25HC3S, 5-cholesten-3, 25-diol, 3-sulfate]
decrease of serum ALT [1, 10]: 58% | decrease of serum AST [1, 10]: 45% | decrease of serum LDH [1, 10]: 60% | markers of liver and kidney function (ALT, AST, ALK, LDH, BUN, glucose) ([1]; 25HC3S 0.5 hours after ATMP, in 48 hrs): returned most markers of liver and kidney function to normal levels | half-life ([2]; female, mouse, blood, FIG. 3A, read-out: half life in circulation (converted)): ~30 h | tissue distribution ([2]; indicated tissues, FIG. 3B): widely distributed in different tissues | survival rate ([3]; 25HC3S 25 mg/kg ip 2 and 24 hrs after ATMP 600 mg/kg, monitored 10 days, vs control): much higher than that of control animals | liver function (damage) markers ALT, AST, AKP and ADH ([3]; surviving mice, sera at 48 hours, vs control (ATMP and vehicle)): lower values of each enzyme | attenuation of body weight loss [4]: no statistically significant attenuation | attenuation of elevated clinical chemistry parameters (LDH, AST and ALT) [4]: no statistically significant attenuation | serum BUN level [5, 11]: reduced | serum creatinine level [5, 11]: reduced | serum BUN level [5, 12]: reduced | serum creatinine level [5, 12]: reduced | serum BUN level [5, 13]: significantly improved | serum creatinine level [5, 13]: significantly improved | size of infarction ([6]; 25HC3S 25 mg/kg i.p. just before or 16-20 h before ischemia/reperfusion, vs vehicle): no statistically significant difference | 24-hour survival rate ([6]; 25HC3S 25 mg/kg i.p., vehicle group 64%): 86% | brain lesion volume ([7]; 24 hours after tMCAO, vs vehicle, difference not statistically significant): smaller | tissue viability (T2 relaxation time) ([7]; 24 hours post tMCAO): statistically higher tissue viability | % edema [7, 14]: smaller | edema volume [7, 14]: smaller | 7-point Neuroscore [7, 15]: no statistically significant differences | 20-point Neuroscore [7, 15]: no statistically significant differences | Limb Placing test [7, 15]: no statistically significant differences | brain lesion volume ([7]; 7 days after tMCAO, vs vehicle, difference not statistically significant): smaller | % edema ([7]; 7 days post tMCAO): nearly recovered; also recorded: some higher levels of edema | edema volume ([7]; 7 days post tMCAO): nearly recovered; also recorded: some higher levels of edema | tissue viability (T2 relaxation time) ([7]; 7 days post tMCAO): statistically higher tissue viability | irritation, discomfort or adverse side effects ([7]; ip injection in tMCAO rats): did not cause irritation, discomfort, or any adverse side effects | body weight recovery ([7]; starting from Day 4 after tMCAO, vs vehicle): faster recovery in body weights | survival (mortality monitored) ([8]; LPS 30 mg/kg IV): lived significantly longer | survival (mortality monitored) ([8]; LPS 40 mg/kg IV): lived significantly longer | survival rate (mortality induced by LPS): 100% | adverse effects ([9]; single oral dose 30, 100, 300, 600 mg suspension, monitored 7 days): No adverse effects were observed | tolerability ([9]; single oral dose 30-600 mg): well tolerated | bioavailability ([9]; single oral dose, plasma samples (FIG. 10)): high bioavailability
